Test results: patent publication US8889674B2, “Piperidine and pyrrolidine derivatives having NPY Y5 receptor antagonism” (Shionogi & Co., Ltd., priority 2009, dated 2014)

These compounds were tested against T1, mouse NPY Y5 receptor (Mus musculus, UniProt O70342) (assay: Affinity for NPY Y5 receptor: 125I peptide YY binding to membranes of CHO cells expressing mouse NPY Y5 receptor). Conditions: mouse NPY Y5 receptor in CHO cell membranes, 125I peptide YY 60 pM, 25° C., 2 hours.
T1 construct: expressed in transfected cells
T1 sequence (O70342 1-466): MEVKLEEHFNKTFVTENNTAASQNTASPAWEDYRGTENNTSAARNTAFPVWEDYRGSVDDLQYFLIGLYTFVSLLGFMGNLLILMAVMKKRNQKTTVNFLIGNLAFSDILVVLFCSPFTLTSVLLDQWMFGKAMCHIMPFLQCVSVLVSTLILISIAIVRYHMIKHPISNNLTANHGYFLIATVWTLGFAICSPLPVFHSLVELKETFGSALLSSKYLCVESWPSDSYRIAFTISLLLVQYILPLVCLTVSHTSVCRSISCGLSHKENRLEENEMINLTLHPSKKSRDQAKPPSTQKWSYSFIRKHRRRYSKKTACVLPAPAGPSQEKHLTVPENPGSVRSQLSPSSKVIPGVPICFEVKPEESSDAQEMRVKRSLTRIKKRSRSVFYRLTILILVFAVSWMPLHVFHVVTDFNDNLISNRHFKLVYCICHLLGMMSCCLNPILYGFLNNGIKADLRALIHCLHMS
Text: cDNA sequence encoding mouse NPY Y5 receptor (Biochem. Biophys. Acta 1328: 83-89, 1997) was cloned in the expression vector (pME18S, Takebe et al. Mol. Cell. Biol. 8, 466-472). The obtained expression vector was transfected into CHO cells as a host according to the instruction manual using Lipofectamine reagent (Trademark, Gibco BRL Co., Ltd.). The cells that stably express NPY Y5 receptor were obtained.
The membrane samples prepared from the CHO cells expressing NPY Y5 receptor, the compound of the invention and 30,000 cpm ^125I peptide YY (60 pM of final concentration: Amersham) were incubated in the assay buffer (20 mM HEPES-Hanks buffer containing 0.1% bovine serum albumin, pH 7.4) at 25° C. for 2 hours. The membrane samples were then filtered from the mixture through a glassfilter (GF/C) presoaked with 1% polyethyleneimine. After washing with 50 mM Tris-HCl buffer (pH 7.4), radioactivity retained on the filters was determined using gamma counter. Non-specific binding was determined in the presence of 200 nM of peptide YY and calculated the 50% inhibitory concentration (IC50 value) of the test compound for specific peptide YY binding (Inui, A. et al. Endocrinology 131, 2090-2096 (1992)).

Row | Structure (SMILES) | IC50
1 | CC(=O)N1CCC[C@@H]1C(=O)N1CCC(C(=O)Nc2cccc(-c3ccccc3F)c2)CC1 [Ia-4] | 0.47 nM
2 | CC(=O)N1CCC[C@@H]1C(=O)N1CCC(c2nc3ccc(-c4ccccc4F)cc3[nH]2)CC1 [Ia-5] | 0.28 nM
3 | C[C@@H]1CC(F)(F)CN1C(=O)N1CCC(C(=O)Nc2cccc(-c3ccccc3F)c2)CC1 [Ia-18] | 1.56 nM
4 | O=C(Nc1ccc(OC(F)F)cc1)C1CCN(C(=O)Cn2c(-c3ccccc3)noc2=O)CC1 [Ia-19] | 0.29 nM
5 | CC(C)c1noc(=O)n1CC(=O)N1CCC(C(=O)Nc2cccc(-c3ccccc3F)c2)CC1 [Ia-22] | 0.22 nM
6 | O=C(Cn1cc(Cl)ccc1=O)N1CCC(c2cc3cc(OC(F)F)ccc3[nH]2)CC1 [Ia-28] | 0.96 nM
7 | O=C(Cn1cc(Cl)ccc1=O)N1CCC(c2cc3cc(-c4ccccn4)ccc3[nH]2)CC1 [Ia-29] | 0.97 nM
8 | N#Cc1ccccc1C(=O)N1CCC(C(=O)Nc2ccn(-c3ccccc3F)n2)CC1 [Ia-34] | 0.59 nM
9 | N#Cc1ccccc1C(=O)N1CCC(C(=O)Nc2cccc(-c3ccccc3F)c2)CC1 [Ia-35] | 0.26 nM
10 | N#Cc1ccccc1C(=O)N1CCC(C(=O)Nc2ccnc(-c3ccccc3F)c2)CC1 [Ia-40] | 0.27 nM
11 | N#Cc1ccccc1C(=O)N1CCC(C(=O)Nc2cccc(-c3ccccn3)c2)CC1 [Ia-41] | 0.31 nM
12 | N#Cc1ccccc1C(=O)N1CCC(C(=O)Nc2ccc(-c3ccccc3)cc2)CC1 [Ia-44] | 0.26 nM
13 | N#Cc1ccccc1C(=O)N1CCC(C(=O)Nc2cccc(Oc3ccccc3)c2)CC1 [Ia-47] | 0.38 nM
14 | N#Cc1ccccc1C(=O)N1CCC(C(=O)Nc2cccc(Oc3ccccc3F)c2)CC1 [Ia-52] | 0.28 nM
15 | N#Cc1ccccc1C(=O)N1CCC(C(=O)Nc2cccc(-c3nccs3)c2)CC1 [Ia-54] | 0.39 nM
16 | CC(C)n1ccc2cc(NC(=O)C3CCN(C(=O)c4ccccc4C#N)CC3)ccc21 [Ia-57] | 0.23 nM
17 | CC(C)c1ccccc1C(=O)N1CCC(C(=O)Nc2ccc(OC(F)F)cc2)CC1 [Ia-62] | 1.77 nM

Row | Structure (SMILES) | IC50
18 | N#Cc1ccccc1C(=O)N1CC[C@H](C(=O)Nc2cccc(-c3ccccc3F)c2)C1 [Ia-63] | 0.33 nM
19 | N#Cc1ccccc1C(=O)N1CC[C@H](C(=O)Nc2ccn(-c3ccccc3F)n2)C1 [Ia-65] | 0.25 nM
20 | N#Cc1ccc(F)cc1C(=O)N1CCC(C(=O)Nc2cccc(-c3ccccc3F)c2)CC1 [Ia-68] | 0.2 nM
21 | N#Cc1ccc(F)cc1C(=O)N1CCC(C(=O)Nc2cccc(-c3ccccn3)c2)CC1 [Ia-70] | 0.18 nM
22 | N#Cc1ccc(F)cc1C(=O)N1CCC(C(=O)Nc2cccc(-c3ncccn3)c2)CC1 [Ia-71] | 0.37 nM
23 | N#Cc1ccccc1C(=O)N1CCC(c2nc(-c3ccc(Cl)c(Cl)c3)c[nH]2)CC1 [Ia-85] | 0.12 nM
24 | N#Cc1ccccc1C(=O)N1CCC(c2nc(-c3cccc(C(F)(F)F)c3)c[nH]2)CC1 [Ia-87] | 0.17 nM
25 | Cc1[nH]c(C2CCN(C(=O)c3ccccc3C#N)CC2)nc1-c1ccccc1 [Ia-88] | 0.35 nM
26 | N#Cc1ccccc1C(=O)N1CCC(c2nc3cc(-c4ccccc4F)ccc3[nH]2)CC1 [Ia-93] | 0.19 nM
27 | N#Cc1ccccc1C(=O)N1CCC(c2cc(-c3ccc(Cl)c(Cl)c3)n[nH]2)CC1 [Ia-94] | 0.3 nM
28 | N#Cc1ccccc1CN1CCC(C(=O)Nc2cccc(-c3ccccc3F)c2)CC1 [Ia-99] | 0.64 nM
29 | O=C(Nc1cccc(-c2ccccc2F)c1)C1CCN(C(=O)c2ccccc2C(F)(F)F)CC1 [Ia-104] | 2 nM
30 | O=C(Nc1ccn(-c2ccccc2F)n1)[C@H]1CCN(C(=O)c2ccccc2C(F)(F)F)C1 [Ia-106] | 1.5 nM
31 | CC(C)n1ccc2cc(NC(=O)C3CCN(C(=O)c4ccccc4C(F)(F)F)CC3)ccc21 [Ia-108] | 0.48 nM
32 | O=C(Nc1cccc(-c2ccccc2F)c1)C1CCN(C(=O)c2cc(Cl)ccn2)CC1 [Ia-113] | 4.28 nM
33 | CC(C)n1cccc1C(=O)N1CCC(C(=O)Nc2cccc(-c3ccccc3F)c2)CC1 [Ia-116] | 1.43 nM
